Assay results taken from the supplement of paper PMC10307832.

How the values were obtained:
Assay in all cases: relative viability (nuclei count vs DMSO), 5 days (fraction); higher = more cells survive
KIN001-266 + Navitoclax = compound: CCN1CCC(CC1)N2C=C(N=N2)CNC3=CC4=C(C(=CN=C4C(=C3)Cl)C#N)NC5=CC(=C(C=C5)F)Cl [KIN001-266] + CC1(C)CCC(c2ccc(Cl)cc2)=C(CN2CCN(c3ccc(C(=O)NS(=O)(=O)c4ccc(N[C@H](CCN5CCOCC5)CSc5ccccc5)c(S(=O)(=O)C(F)(F)F)c4)cc3)CC2)C1 [Navitoclax] (partner 0.5 µM)
Summary of the method: (§1)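 After 5 days of treatment, lung cancer cells in 1536-well plates were fixed and stained in a single step (final 0.05% Triton X-100, 1% formaldehyde, 1 ug/ml Hoechst) and their nuclei counted on 4× images. Treatment had been applied by pin tool the day after seeding as one drug alone or as a fixed anchor-drug dose with five library-drug doses (not always all listed) in √10 steps. Relative viability is the nuclei count of treated wells divided by that of vehicle wells, and values are medians of duplicate plates.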

KIN001-266 + Linsitinib = compound: CCN1CCC(CC1)N2C=C(N=N2)CNC3=CC4=C(C(=CN=C4C(=C3)Cl)C#N)NC5=CC(=C(C=C5)F)Cl [KIN001-266] + C[C@]1(O)C[C@@H](c2nc(-c3ccc4ccc(-c5ccccc5)nc4c3)c3c(N)nccn32)C1 [Linsitinib] (partner 1 µM)
Summary of the method: as §1

KIN001-266 + Alpelisib = compound: CCN1CCC(CC1)N2C=C(N=N2)CNC3=CC4=C(C(=CN=C4C(=C3)Cl)C#N)NC5=CC(=C(C=C5)F)Cl [KIN001-266] + Cc1nc(NC(=O)N2CCC[C@H]2C(N)=O)sc1-c1ccnc(C(C)(C)C(F)(F)F)c1 [Alpelisib] (partner 2 µM)
Summary of the method: as §1

KIN001-266 + Vorinostat = compound: CCN1CCC(CC1)N2C=C(N=N2)CNC3=CC4=C(C(=CN=C4C(=C3)Cl)C#N)NC5=CC(=C(C=C5)F)Cl [KIN001-266] + O=C(CCCCCCC(=O)Nc1ccccc1)NO [Vorinostat] (partner 1 µM)
Summary of the method: as §1

Row | Cell Line | relative viability (KIN001-266 + Navitoclax; first compound 0.08 µM) | relative viability (KIN001-266 + Navitoclax; first compound 0.253 µM) | relative viability (KIN001-266 + Navitoclax; first compound 0.8 µM) | relative viability (KIN001-266 + Navitoclax; first compound 2.53 µM) | relative viability (KIN001-266 + Navitoclax; first compound 8 µM) | relative viability (KIN001-266 + Linsitinib; first compound 0.08 µM) | relative viability (KIN001-266 + Linsitinib; first compound 0.253 µM) | relative viability (KIN001-266 + Linsitinib; first compound 0.8 µM) | relative viability (KIN001-266 + Linsitinib; first compound 2.53 µM) | relative viability (KIN001-266 + Linsitinib; first compound 8 µM) | relative viability (KIN001-266 + Alpelisib; first compound 0.08 µM) | relative viability (KIN001-266 + Alpelisib; first compound 0.253 µM) | relative viability (KIN001-266 + Alpelisib; first compound 0.8 µM) | relative viability (KIN001-266 + Alpelisib; first compound 2.53 µM) | relative viability (KIN001-266 + Alpelisib; first compound 8 µM) | relative viability (KIN001-266 + Vorinostat; first compound 0.08 µM) | relative viability (KIN001-266 + Vorinostat; first compound 0.253 µM) | relative viability (KIN001-266 + Vorinostat; first compound 0.8 µM) | relative viability (KIN001-266 + Vorinostat; first compound 2.53 µM) | relative viability (KIN001-266 + Vorinostat; first compound 8 µM)
1 | SW 1573 | 1.05 | 1.05 | 1.03 | 0.91 | 0.643 | 0.844 | 0.8 | 0.72 | 0.732 | 0.619 | 0.789 | 0.775 | 0.709 | 0.764 | 0.693 | 0.796 | 0.625 | 1.06 | 0.835 | 0.654
2 | LU99A | 0.917 | 0.749 | 0.735 | 0.752 | 0.569 | 0.635 | 0.564 | 0.496 | 0.401 | 0.467 | 0.66 | 0.606 | 0.442 | 0.438 | 0.442 | 0.484 | 0.591 | 0.467 | 0.459 | 0.539
3 | NCI-H647 | 1.07 | 1.28 | 1.19 | 1.15 | 1.13 | 1.31 | 1.03 | 1.26 | 1.13 | 1.03 | 1.29 | 1.3 | 1.11 | 1.11 | 0.928 | 0.562 | 0.631 | 0.921 | 0.761 | 0.508
4 | A-427 | 0.973 | 0.991 | 0.978 | 0.983 | 0.953 | 1.12 | 1.2 | 1.09 | 1.06 | 1.13 | 1.12 | 1.05 | 1.04 | 1.02 | 0.998 | 0.885 | 0.88 | 0.883 | 0.82 | 0.856
5 | COR-L 105 | 0.725 | 0.681 | 0.805 | 0.946 | 0.817 | 0.974 | 0.932 | 0.991 | 0.93 | 0.846 | 1.15 | 0.859 | 1.14 | 0.9 | 0.896 | 0.796 | 1.07 | 0.899 | 0.594 | 0.814
6 | NCI-H441 | 0.688 | 0.635 | 0.483 | 0.623 | 0.531 | 0.7 | 0.454 | 0.456 | 0.565 | 0.59 | 0.75 | 0.822 | 0.73 | 0.793 | 0.496 | 0.968 | 0.765 | 0.58 | 0.617 | 0.584
7 | NCI-H2126 | 0.844 | 0.86 | 0.863 | 0.813 | 0.855 | 0.72 | 0.724 | 0.739 | 0.73 | 0.73 | 0.77 | 0.76 | 0.774 | 0.703 | 0.76 | 0.809 | 0.783 | 0.751 | 0.732 | 0.694
8 | HCC-44 | 1.03 | 1.08 | 0.946 | 1.06 | 1.03 | 0.669 | 0.678 | 0.687 | 0.742 | 0.622 | 0.806 | 0.838 | 0.805 | 0.868 | 0.651 | 1.15 | 1.09 | 1.04 | 1.14 | 1.11
9 | NCI-H460 | 1.16 | 1.2 | 1.15 | 1.03 | 1.07 | 0.673 | 0.853 | 0.899 | 0.762 | 0.539 | 0.609 | 0.581 | 0.484 | 0.485 | 0.413 | 0.725 | 0.697 | 0.735 | 0.649 | 0.671
10 | SK-LU-1 | 0.677 | 0.465 | 1.11 | 0.839 | 0.512 | 1.29 | 0.937 | 1.14 | 1.07 | 0.639 | 1.24 | 1.07 | 1.14 | 0.927 | 0.582 | 0.833 | 0.799 | 0.783 | 0.776 | 0.518
11 | NCI-H322M | 1.19 | 1.3 | 1.24 | 1.05 | 1.18 | 0.957 | 0.987 | 0.897 | 0.855 | 0.83 | 0.648 | 0.87 | 0.8 | 0.694 | 0.689 | 0.877 | 0.91 | 0.848 | 0.758 | 0.788
12 | EKVX | 1.08 | 0.822 | 0.925 | 0.975 | 0.876 | 1.01 | 0.956 | 1.04 | 0.963 | 1.04 | 0.871 | 0.817 | 0.83 | 0.807 | 0.877 | 0.663 | 0.671 | 0.757 | 0.735 | 0.678
13 | NCI-H1734 | 0.789 | 0.839 | 0.612 | 0.808 | 0.61 | 0.812 | 0.876 | 0.735 | 0.848 | 0.856 | 0.686 | 0.686 | 0.546 | 0.716 | 0.704 | 0.849 | 0.85 | 0.743 | 0.796 | 0.599
14 | NCI-H520 | 1.11 | 1.05 | 1.16 | 0.926 | 0.967 | 1.01 | 0.969 | 1.06 | 0.769 | 0.894 | 0.817 | 0.929 | 1.08 | 0.646 | 0.801 | 0.659 | 0.71 | 0.838 | 0.673 | 0.452
